Reference: PubChem BioAssay AID540258 (Broad Institute, 2011)
The source made the active and inactive calls.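 The calls were made as follows: active = fitted curve reaching 40% activation at or below the top valid dose tested; inconclusive = flat curve at 30 to 70% activation, or poor fit; inactive = the rest.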

Tested on: SK-MEL-5 TRPM1 promoter luciferase reporter, 24 h
Test: activation of TRPM1 promoter luciferase in melanoma cells – SK-MEL-5 cells, cherry-pick samples, dose response (AID 540258);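 also: potency for activators that raise TRPM1 promoter luciferase signal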

Row | Structure (SMILES) | AC40
1 | CC1(C)CNC(=O)c2sc(NC(=O)c3ccccc3)nc2C1 | 21.9 µM
2 | CC(=O)c1ccc(NC(=O)Nc2ccc3c(c2)nc(C)n3C)cc1 | 31.2 µM
3 | CN(c1ccc(O)cc1)c1nc(O)c(C2=c3ccccc3=NC2=O)s1 | 8.06 µM
4 | CCN(N=O)c1ccc(C=C2C=Cc3ccccc32)cc1 | 0.238 µM
5 | CCc1ccc(C(=O)NC2CCCCC2)s1 | 2.95 µM
6 | COc1ccc2sc(NCc3ccccc3)nc2c1 | 1.98 µM
7 | COc1ccc(-c2cc3nc4ccccc4n3c(N)c2C#N)cc1 | 1.83 µM
8 | CCS(=O)(=O)N1Cc2ccccc2CC1C(=O)NCc1cccc(OC)c1 (centres undefined) | > 35 µM (inactive)
9 | O=C(c1cccs1)N1CCn2c1nc1ccccc12 | 4.69 µM
10 | O=C(NCCc1ccccc1)c1nccc2ccccc12 | 19.2 µM
11 | O=C(Nc1ccccc1O)c1cc2cc(Br)ccc2oc1=O | 2.18 µM
12 | Cc1ccc(NC(=O)CCCc2ccccc2)nc1 | 5.72 µM
13 | Cc1ccc(NC(=O)Nc2ccc3oc(C)nc3c2)cc1 | 1.39 µM
14 | Cc1ccn2c(C(=O)c3ccc(Cl)cc3)cnc2c1 | 0.803 µM
15 | COC(=O)c1ccc2[nH]c(C3(O)CCCCC3)c(C)c2c1 | 10.3 µM
16 | O=C(Nc1ccc(O)cc1)c1cc2ccccc2c(=O)s1 | 2.3 µM
17 | COc1c(C)cccc1C(=O)Nc1ccc(N2CCN(S(C)(=O)=O)CC2)cc1 | 4.98 µM
18 | CCC(=O)Nc1ccc(-c2ccc(N3CCC(C)CC3)nn2)cc1 | 4.63 µM
19 | Cc1ccc2cc(/C=N/Nc3ccc(C(=O)O)cc3)c(Cl)nc2c1 | 1.37 µM
20 | Oc1ccc(-c2nccc(-c3ccccn3)n2)cc1 | 4.35 µM
21 | COc1ccc2c(c1OC)C(=O)N(c1ccc(C)cc1)C2 | 12.3 µM
22 | O=C(N/N=C\c1cccc(Cl)c1)c1n[nH]c2c1CCCC2 | 0.504 µM
23 | FC(F)Oc1ccc(N=C2SCC3CCCCN23)cc1 (centres undefined) | 2.53 µM
24 | Clc1ccc(N/N=C/c2cccnc2)cc1 | 9.36 µM

Row | Structure (SMILES) | AC40
25 | Nc1nc2ccccc2cc1-c1cccs1 | 6.26 µM
26 | CC(C)c1ccc(NC(=O)Cn2ncc3ccccc32)cc1 | 6.86 µM
27 | Cc1ccc(NC(=O)c2ccccc2Cl)c(Cl)c1 | 4.2 µM
28 | COc1ccccc1NC(=O)Nc1ccc(C(=O)N2CCCCC2)cc1 | 16.6 µM
29 | CN(CC(=O)Nc1ccccc1Br)C(=O)c1cc2c(s1)CCCCC2 | 3.4 µM
30 | CCc1ccc(N2Cc3ccccc3C2)cc1 | 2.25 µM
31 | COc1ccc(C(=S)Nc2ccc(C)cc2)cc1 | 2.65 µM
32 | COc1ccc(NC(=S)c2ccccc2)cc1 | 3.97 µM
33 | CC(C)(C)n1ncc2c(=O)n(CC(=O)c3ccccc3)cnc21 | 2.87 µM
34 | c1ccc(-c2noc(CCC3CCCC3)n2)cc1 | 4.35 µM
35 | CS(=O)(=O)N1N=C(c2ccc(Br)cc2)CC1c1ccc2c(c1)OCO2 (centres undefined) | 2.95 µM
36 | COc1ccc(Oc2ncnc3sccc23)cc1 | 6.05 µM
37 | Cc1ccc(Nc2cc(C)nc(-c3ccccc3)n2)cc1 | 2.33 µM
38 | CN(C)S(=O)(=O)c1cccc(-c2nnc(-c3ccccc3)o2)c1 | 8.86 µM
39 | CSc1ccc(-c2nnn(Cc3ccc(C)cc3)n2)cc1 | 5.08 µM
40 | COc1cccc(/C(C)=N/N=C(\C)c2cccc(OC)c2)c1 | 3.27 µM
41 | O=C1C(=O)N(c2ccccc2)P(=O)(N(CCCl)CCCl)N1c1ccccc1 | 16.1 µM
42 | CC(=O)c1ccc2oc3ccccc3c(=O)c2c1 | 10.1 µM
43 | CCc1nc2oc3ccccc3c(=O)c2cc1C(=O)OC | 5.7 µM
44 | CCN(CC)c1ccc(-c2nc3cnccc3n2C)cc1 | 1.64 µM
45 | N#Cc1ccc(NC(=O)c2cccs2)nc1 | 16.8 µM
46 | CC(=O)N(c1ccccc1)c1nnc(-c2cnc(C)cn2)s1 | 1.55 µM
47 | CSc1ccc(CNc2ccc(Cl)cc2)cc1 | 5.67 µM
48 | N#Cc1cc(C#N)c(N2CCN(c3ccccn3)CC2)nc1N | 4.47 µM

Row | Structure (SMILES) | AC40
49 | Cc1ccc(Nc2nnc(-c3ccccc3N)o2)cc1C | 1.59 µM
50 | CC(C)(C)c1csc(N/N=C/c2ccc(O)cc2)n1 | 17.8 µM
51 | Clc1ccc(-n2nnc(-c3cccnc3Cl)n2)cn1 | 3.3 µM
52 | CN(C(=O)c1cc2sccc2n1C)C1CCCCC1 | > 35 µM (inactive)
53 | Cn1cccc1C(=O)C(=O)Nc1ccc(F)c(F)c1 | 0.855 µM
54 | COc1ccc(/C=N/Nc2snc(SC)c2C#N)cc1OC | 4.29 µM
55 | O=C(NC1CCCC1)c1cc(-c2ccc(Cl)cc2Cl)on1 | 0.393 µM
56 | CCC(=O)N1CCc2nc(-c3ccccc3)sc2C1 | 6.73 µM
57 | COc1cccc(N(C(=O)c2nc3nccc(C)n3n2)c2nc3ccccc3s2)c1 | 0.495 µM
58 | Cc1ccc2c(Cl)c(C(=O)Nc3cccnc3)sc2c1 | 1.19 µM
59 | CSCc1ccc(C(=O)Nc2cc(C)cc(C)c2)cc1 | 2.81 µM
60 | c1ccc(-n2ncc3c(NCc4cccs4)ncnc32)cc1 | 2.66 µM
61 | COc1ccc(-c2c(C)nc3c(-c4ccsc4)cnn3c2N)cc1 | 0.302 µM
62 | Clc1ccc(OCc2noc(-c3ccsc3)n2)c(Cl)c1 | 1.45 µM
63 | Cc1cccc2nc(COc3ccc4ccccc4c3Br)cn12 | 1.27 µM
64 | O=C1OC(c2ccccc2)=C/C1=C/N1CCCCC1 | 2.12 µM
65 | CCc1ccc2[nH]c3nc(C)cc(C)c3c(=O)c2c1 | 4 µM
66 | COC(=O)C1CCCCN1C(=O)c1ccc2oc(Cc3ccccc3)nc2c1 (centres undefined) | 3.18 µM
67 | Oc1nc(Nc2ccccc2)sc1/C=C1\C=Nc2ccccc21 | 9.81 µM
68 | CC(=O)c1sc(NC(=O)c2ccc3c(c2)OCO3)nc1C | 1.39 µM
69 | CCc1ccc(NC(=O)c2cc(-c3cccs3)on2)cc1 | 12.3 µM
70 | COc1ccc(-c2ccc(C(=O)C3CC3)cc2)cc1 | 0.775 µM
71 | CC(C)Nc1oc(-c2cccc3ccccc23)nc1C#N | 9.14 µM
72 | COc1ccc(OC)c(/C=N/N(C)c2ccccc2)c1 | 1.44 µM

Row | Structure (SMILES) | AC40
73 | Cc1nc(C(=O)Nc2ccccc2)sc1C(=O)Nc1ccccc1 | 3.89 µM
74 | COc1ccc(-c2noc(-c3cccc(OC)c3OC)n2)cc1OC | 1.33 µM
75 | Cn1c(SCc2c(F)cccc2Cl)nnc1-c1cnccn1 | 6.16 µM
76 | c1cnc2nc(-c3ccc4c(c3)OCO4)cn2c1 | 13.7 µM
77 | O=C(Nc1ccc2c(c1)OCO2)c1cc(-c2ccccc2Cl)on1 | 2.06 µM
78 | Nc1c(C(=O)N2CCCC2)sc2nc(-c3ccccc3)ccc12 | 6.19 µM
79 | C/C(=N/NC(=O)c1ccncc1)c1ccc(NC(=O)c2ccc(Cl)cc2Cl)cc1 | > 35 µM (inactive)
80 | Cc1cnc(NC(=O)Nc2ccc(Cl)cc2)s1 | 1.38 µM
81 | COC(=O)c1ccc(/C=N/Nc2nc(C)c(C)s2)cc1 | 1.5 µM
82 | COC(=O)Cn1c(C)nc2c(sc3nc(C)cc(C)c32)c1=O | 2.35 µM
83 | CN1C(=O)NC(=O)C(C)(C2=CCCCC2)C1=O (centres undefined) | > 35 µM (inactive)
84 | C=CCN=C1S/C(=C\c2ccc(N(C)C)cc2)C(=O)N1CC=C | 21.5 µM
85 | Cc1cccc(NC(=O)c2sc3nc(N)c(C#N)cc3c2N)c1 | 2.61 µM
86 | CCn1c(/C=C/c2c[nH]c3ccccc23)nc2ccccc2c1=O | 0.583 µM
87 | CN1C(=O)C2C=CC1C1C(=O)N(c3ccccc3)C(=O)C21 (centres undefined) | 1.89 µM
88 | O=C(Nc1ccccc1Cl)c1ccc2nccnc2c1 | 4.21 µM
89 | COc1ccc2c(c1)CC/C2=N\OC(=O)c1ccccc1C | 1.27 µM
90 | Cc1ccc(-c2cc(-c3ccc(C)cc3O)[nH]n2)cc1 | 0.342 µM
91 | CCCCN1C(=O)/C(=C/C=C2\SCCN2C)SC1=S | 5.57 µM
92 | Cc1cccc(-c2cc(N)n(-c3ccccc3)n2)c1 | 0.712 µM
93 | CCCC(=O)Nc1ccc(C#Cc2ccccc2)cc1 | 1.63 µM
94 | Brc1ccc(/C=N/Nc2ccccc2)cc1 | 15.4 µM
